# Patent US20250170099A1, “TREATMENT OF POSTNATAL DEPRESSION” (GH RESEARCH IRELAND LIMITED, priority 2022, published 2025)
# Tests used:
# [1] = test system: Salmonella typhimurium TA98, TA100, TA1535, TA1537 and Escherichia coli WP2 uvrA pKM101; assay: Bacterial mutation test; format: cell-based
# Protocol: These conditions included treatments at concentrations up to 5000 μg/plate (the maximum recommended concentration according to current regulatory guidelines), in the absence and in the presence of a rat liver metabolic activation system (S-9).
# [2] = Pharmacokinetics of 5-MeO-DMT and bufotenine after inhalation; format: in vivo, human; details: within 1 to 4 hours
compound,measurement,setting,value
COc1ccc2[nH]cc(CCN(C)C)c2c1 [5-MeO-DMT],in vitro genotoxicity assessment,[1],negative
same,mutation induction,"[1]; up to 5000 μg/plate, without and with S-9",did not induce mutation
same,accumulation upon repeated administration,[2],No accumulation
